Laboratory results taken from ChEMBL document CHEMBL4507279, “Data for DCP probe BI-9627” (2021).

Assays:
[1] = tested on: Tyrosine-protein kinase ABL1 (Homo sapiens), P00519 [E255K]; conditions: Compound concentration 1000.0 nM
[2] = tested on: Tyrosine-protein kinase ABL1 (Homo sapiens), P00519 [F317L]; conditions: Compound concentration 1000.0 nM
[3] = biological target: Cytoplasmic tyrosine-protein kinase BMX (Homo sapiens) (UniProt P51813); conditions: Compound concentration 1000.0 nM
[4] = biological target: Serine/threonine-protein kinase B-raf (Homo sapiens) (UniProt P15056); conditions: Compound concentration 1000.0 nM
[5] = biological target: Cyclin-dependent kinase 7 (Homo sapiens) (UniProt P50613); conditions: Compound concentration 1000.0 nM
[6] = biological target: Cyclin-dependent kinase-like 5 (Homo sapiens) (UniProt O76039); conditions: Compound concentration 1000.0 nM
[7] = biological target: Macrophage colony-stimulating factor 1 receptor (Homo sapiens) (UniProt P07333); conditions: Compound concentration 1000.0 nM
[8] = biological target: Casein kinase I isoform epsilon (Homo sapiens) (UniProt P49674); conditions: Compound concentration 1000.0 nM
[9] = biological target: Ephrin type-A receptor 2 (Homo sapiens) (UniProt P29317); conditions: Compound concentration 1000.0 nM
[10] = biological target: Ephrin type-B receptor 3 (Homo sapiens) (UniProt P54753); conditions: Compound concentration 1000.0 nM
[11] = biological target: Mitogen-activated protein kinase 7 (Homo sapiens) (UniProt Q13164); conditions: Compound concentration 1000.0 nM
[12] = biological target: Tyrosine-protein kinase Fer (Homo sapiens) (UniProt P16591); conditions: Compound concentration 1000.0 nM
[13] = tested on: Fibroblast growth factor receptor 3 (Homo sapiens), P22607 [G697C]; conditions: Compound concentration 1000.0 nM
[14] = tested on: Receptor-type tyrosine-protein kinase FLT3 (Homo sapiens), P36888 [D835Y]; conditions: Compound concentration 1000.0 nM
[15] = biological target: Vascular endothelial growth factor receptor 3 (Homo sapiens) (UniProt P35916); conditions: Compound concentration 1000.0 nM
[16] = biological target: G protein-coupled receptor kinase 3 (Homo sapiens) (UniProt P35626); conditions: Compound concentration 1000.0 nM
[17] = biological target: Homeodomain-interacting protein kinase 1 (Homo sapiens) (UniProt Q86Z02); conditions: Compound concentration 1000.0 nM
[18] = biological target: Inhibitor of nuclear factor kappa-B kinase subunit epsilon (Homo sapiens) (UniProt Q14164); conditions: Compound concentration 1000.0 nM
[19] = tested on: Mast/stem cell growth factor receptor Kit (Homo sapiens), P10721 [V559D,T670I]; conditions: Compound concentration 1000.0 nM
[20] = biological target: Mitogen-activated protein kinase kinase kinase 15 (Homo sapiens) (UniProt Q6ZN16); conditions: Compound concentration 1000.0 nM
[21] = biological target: Myosin light chain kinase (Homo sapiens) (UniProt Q32MK0); conditions: Compound concentration 1000.0 nM
[22] = biological target: Serine/threonine-protein kinase MRCK beta (Homo sapiens) (UniProt Q9Y5S2); conditions: Compound concentration 1000.0 nM
[23] = biological target: Myosin-IIIa (Homo sapiens) (UniProt Q8NEV4); conditions: Compound concentration 1000.0 nM
[24] = biological target: Serine/threonine-protein kinase Nek6 (Homo sapiens) (UniProt Q9HC98); conditions: Compound concentration 1000.0 nM
[25] = biological target: Mitogen-activated protein kinase 12 (Homo sapiens) (UniProt P53778); conditions: Compound concentration 1000.0 nM
[26] = biological target: Serine/threonine-protein kinase PAK 3 (Homo sapiens) (UniProt O75914); conditions: Compound concentration 1000.0 nM
[27] = biological target: Phosphatidylinositol 4,5-bisphosphate 3-kinase catalytic subunit gamma isoform (Homo sapiens) (UniProt P48736); conditions: Compound concentration 1000.0 nM
[28] = biological target: Serine/threonine-protein kinase N2 (Homo sapiens) (UniProt Q16513); conditions: Compound concentration 1000.0 nM
[29] = biological target: Protein kinase C eta type (Homo sapiens) (UniProt P24723); conditions: Compound concentration 1000.0 nM
[30] = biological target: Serine/threonine-protein kinase RIO2 (Homo sapiens) (UniProt Q9BVS4); conditions: Compound concentration 1000.0 nM
[31] = biological target: Rho-associated protein kinase 2 (Homo sapiens) (UniProt O75116); conditions: Compound concentration 1000.0 nM
[32] = biological target: Ribosomal protein S6 kinase beta-1 (Homo sapiens) (UniProt P23443); conditions: Compound concentration 1000.0 nM
[33] = biological target: Tyrosine-protein kinase Srms (Homo sapiens) (UniProt Q9H3Y6); conditions: Compound concentration 1000.0 nM
[34] = biological target: Non-receptor tyrosine-protein kinase TYK2 (Homo sapiens) (UniProt P29597); conditions: Compound concentration 1000.0 nM
[35] = biological target: Tyrosine-protein kinase receptor TYRO3 (Homo sapiens) (UniProt Q06418); conditions: Compound concentration 1000.0 nM
[36] = biological target: 5-hydroxytryptamine receptor 7 (Homo sapiens) (UniProt P34969); conditions: Compound concentration 10.0 uM
[37] = biological target: Histamine H1 receptor (Homo sapiens) (UniProt P35367); conditions: Compound concentration 10.0 uM
[38] = biological target: T1, Alpha-2A adrenergic receptor (Homo sapiens) (UniProt P08913); conditions: Compound concentration 10.0 uM
T1 sequence (whole entry): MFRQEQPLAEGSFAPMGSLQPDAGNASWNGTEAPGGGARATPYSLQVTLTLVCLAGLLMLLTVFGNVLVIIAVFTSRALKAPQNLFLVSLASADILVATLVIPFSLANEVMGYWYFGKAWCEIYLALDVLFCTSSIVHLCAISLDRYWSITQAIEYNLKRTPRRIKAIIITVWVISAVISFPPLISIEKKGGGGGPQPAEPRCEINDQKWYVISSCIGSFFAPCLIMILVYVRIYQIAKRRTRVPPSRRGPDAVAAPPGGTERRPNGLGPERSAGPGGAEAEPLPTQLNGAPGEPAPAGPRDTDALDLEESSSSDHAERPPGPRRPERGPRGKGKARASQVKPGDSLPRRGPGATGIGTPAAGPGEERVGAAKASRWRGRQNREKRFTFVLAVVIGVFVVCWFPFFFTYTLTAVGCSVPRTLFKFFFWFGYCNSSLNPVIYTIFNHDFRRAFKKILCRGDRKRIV

[39] = biological target: Muscarinic acetylcholine receptor M4 (Homo sapiens) (UniProt P08173); conditions: Compound concentration 10.0 uM

Sequence of Mitogen-activated protein kinase kinase kinase 15 (Homo sapiens) (Q6ZN16 whole entry): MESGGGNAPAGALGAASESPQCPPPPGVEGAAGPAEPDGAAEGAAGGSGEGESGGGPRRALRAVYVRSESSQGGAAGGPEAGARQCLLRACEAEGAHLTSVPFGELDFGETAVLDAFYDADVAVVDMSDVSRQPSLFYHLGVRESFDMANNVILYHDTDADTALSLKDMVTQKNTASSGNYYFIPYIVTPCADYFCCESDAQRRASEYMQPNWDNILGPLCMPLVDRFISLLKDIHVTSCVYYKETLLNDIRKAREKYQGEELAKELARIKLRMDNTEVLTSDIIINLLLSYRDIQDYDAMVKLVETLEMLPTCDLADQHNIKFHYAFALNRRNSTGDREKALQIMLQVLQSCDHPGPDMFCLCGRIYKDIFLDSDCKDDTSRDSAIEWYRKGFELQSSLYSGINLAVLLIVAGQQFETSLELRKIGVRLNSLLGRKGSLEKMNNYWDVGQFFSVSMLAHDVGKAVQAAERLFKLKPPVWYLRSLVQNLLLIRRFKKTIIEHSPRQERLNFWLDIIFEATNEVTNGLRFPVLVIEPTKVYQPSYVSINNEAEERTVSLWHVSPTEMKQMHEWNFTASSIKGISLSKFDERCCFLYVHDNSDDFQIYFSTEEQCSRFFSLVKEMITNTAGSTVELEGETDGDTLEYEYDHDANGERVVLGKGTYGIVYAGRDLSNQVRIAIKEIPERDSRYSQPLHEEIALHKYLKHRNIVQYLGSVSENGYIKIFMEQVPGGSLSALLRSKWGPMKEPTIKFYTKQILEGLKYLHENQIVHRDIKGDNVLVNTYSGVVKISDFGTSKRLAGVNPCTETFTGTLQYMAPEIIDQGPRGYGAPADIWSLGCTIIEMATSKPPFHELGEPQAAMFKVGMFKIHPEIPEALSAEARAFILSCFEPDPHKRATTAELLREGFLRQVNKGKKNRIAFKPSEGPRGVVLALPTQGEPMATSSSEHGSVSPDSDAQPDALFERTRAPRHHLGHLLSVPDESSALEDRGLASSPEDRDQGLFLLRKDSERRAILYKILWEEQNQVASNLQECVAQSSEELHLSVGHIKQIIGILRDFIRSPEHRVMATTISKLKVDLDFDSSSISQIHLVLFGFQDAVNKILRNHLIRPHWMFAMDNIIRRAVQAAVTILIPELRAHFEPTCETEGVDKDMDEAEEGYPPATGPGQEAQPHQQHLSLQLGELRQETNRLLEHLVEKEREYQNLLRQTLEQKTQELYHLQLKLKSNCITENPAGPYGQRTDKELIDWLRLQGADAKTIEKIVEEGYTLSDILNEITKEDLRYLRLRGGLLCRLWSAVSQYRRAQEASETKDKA
Sequence of Myosin light chain kinase (Homo sapiens) (Q32MK0 whole entry): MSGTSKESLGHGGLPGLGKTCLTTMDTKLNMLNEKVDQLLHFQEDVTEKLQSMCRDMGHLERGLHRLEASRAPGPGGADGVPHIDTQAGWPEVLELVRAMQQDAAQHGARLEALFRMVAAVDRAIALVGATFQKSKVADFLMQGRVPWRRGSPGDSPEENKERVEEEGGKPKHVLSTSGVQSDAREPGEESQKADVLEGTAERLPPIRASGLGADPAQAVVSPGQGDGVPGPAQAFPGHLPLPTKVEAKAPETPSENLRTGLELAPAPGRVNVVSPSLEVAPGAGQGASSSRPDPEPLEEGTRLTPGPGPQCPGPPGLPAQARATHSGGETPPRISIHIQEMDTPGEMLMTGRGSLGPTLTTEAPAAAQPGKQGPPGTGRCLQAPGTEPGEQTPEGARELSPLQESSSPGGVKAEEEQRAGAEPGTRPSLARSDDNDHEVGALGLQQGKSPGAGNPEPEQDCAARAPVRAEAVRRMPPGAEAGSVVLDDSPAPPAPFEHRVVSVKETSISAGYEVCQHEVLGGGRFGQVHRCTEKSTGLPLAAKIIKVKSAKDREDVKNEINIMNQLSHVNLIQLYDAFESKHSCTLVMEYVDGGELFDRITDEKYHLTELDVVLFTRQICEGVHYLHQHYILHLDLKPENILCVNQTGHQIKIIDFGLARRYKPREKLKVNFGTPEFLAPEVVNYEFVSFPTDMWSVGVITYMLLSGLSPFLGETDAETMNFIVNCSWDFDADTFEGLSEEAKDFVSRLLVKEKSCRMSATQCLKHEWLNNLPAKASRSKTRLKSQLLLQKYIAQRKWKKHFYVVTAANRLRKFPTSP
Sequence of Ephrin type-A receptor 2 (Homo sapiens) (P29317 whole entry): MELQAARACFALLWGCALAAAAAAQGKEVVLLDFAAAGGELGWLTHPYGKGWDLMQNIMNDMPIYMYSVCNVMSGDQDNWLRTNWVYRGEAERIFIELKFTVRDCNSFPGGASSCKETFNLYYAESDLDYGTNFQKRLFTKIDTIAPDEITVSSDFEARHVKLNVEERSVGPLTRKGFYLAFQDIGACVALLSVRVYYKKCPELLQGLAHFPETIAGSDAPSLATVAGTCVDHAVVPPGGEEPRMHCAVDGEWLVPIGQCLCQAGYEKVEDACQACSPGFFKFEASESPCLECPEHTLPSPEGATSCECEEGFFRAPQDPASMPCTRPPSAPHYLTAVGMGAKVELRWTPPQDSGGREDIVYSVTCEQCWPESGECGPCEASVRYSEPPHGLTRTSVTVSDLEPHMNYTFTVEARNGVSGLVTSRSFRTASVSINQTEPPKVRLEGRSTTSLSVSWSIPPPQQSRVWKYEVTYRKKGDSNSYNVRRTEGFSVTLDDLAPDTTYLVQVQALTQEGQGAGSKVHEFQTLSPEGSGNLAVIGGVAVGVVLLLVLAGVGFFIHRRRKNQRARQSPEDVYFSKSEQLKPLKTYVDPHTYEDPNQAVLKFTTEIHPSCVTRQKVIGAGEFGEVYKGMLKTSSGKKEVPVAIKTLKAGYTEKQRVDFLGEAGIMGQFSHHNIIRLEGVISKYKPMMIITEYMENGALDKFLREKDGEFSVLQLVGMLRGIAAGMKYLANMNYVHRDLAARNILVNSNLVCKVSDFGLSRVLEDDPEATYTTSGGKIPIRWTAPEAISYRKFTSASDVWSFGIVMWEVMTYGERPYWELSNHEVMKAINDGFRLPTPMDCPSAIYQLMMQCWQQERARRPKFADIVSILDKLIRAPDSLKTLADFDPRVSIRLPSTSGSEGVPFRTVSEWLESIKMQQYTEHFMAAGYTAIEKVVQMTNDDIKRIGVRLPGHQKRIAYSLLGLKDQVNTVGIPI
Sequence of Tyrosine-protein kinase ABL1 (Homo sapiens), P00519 [E255K] (P00519 whole entry E255K): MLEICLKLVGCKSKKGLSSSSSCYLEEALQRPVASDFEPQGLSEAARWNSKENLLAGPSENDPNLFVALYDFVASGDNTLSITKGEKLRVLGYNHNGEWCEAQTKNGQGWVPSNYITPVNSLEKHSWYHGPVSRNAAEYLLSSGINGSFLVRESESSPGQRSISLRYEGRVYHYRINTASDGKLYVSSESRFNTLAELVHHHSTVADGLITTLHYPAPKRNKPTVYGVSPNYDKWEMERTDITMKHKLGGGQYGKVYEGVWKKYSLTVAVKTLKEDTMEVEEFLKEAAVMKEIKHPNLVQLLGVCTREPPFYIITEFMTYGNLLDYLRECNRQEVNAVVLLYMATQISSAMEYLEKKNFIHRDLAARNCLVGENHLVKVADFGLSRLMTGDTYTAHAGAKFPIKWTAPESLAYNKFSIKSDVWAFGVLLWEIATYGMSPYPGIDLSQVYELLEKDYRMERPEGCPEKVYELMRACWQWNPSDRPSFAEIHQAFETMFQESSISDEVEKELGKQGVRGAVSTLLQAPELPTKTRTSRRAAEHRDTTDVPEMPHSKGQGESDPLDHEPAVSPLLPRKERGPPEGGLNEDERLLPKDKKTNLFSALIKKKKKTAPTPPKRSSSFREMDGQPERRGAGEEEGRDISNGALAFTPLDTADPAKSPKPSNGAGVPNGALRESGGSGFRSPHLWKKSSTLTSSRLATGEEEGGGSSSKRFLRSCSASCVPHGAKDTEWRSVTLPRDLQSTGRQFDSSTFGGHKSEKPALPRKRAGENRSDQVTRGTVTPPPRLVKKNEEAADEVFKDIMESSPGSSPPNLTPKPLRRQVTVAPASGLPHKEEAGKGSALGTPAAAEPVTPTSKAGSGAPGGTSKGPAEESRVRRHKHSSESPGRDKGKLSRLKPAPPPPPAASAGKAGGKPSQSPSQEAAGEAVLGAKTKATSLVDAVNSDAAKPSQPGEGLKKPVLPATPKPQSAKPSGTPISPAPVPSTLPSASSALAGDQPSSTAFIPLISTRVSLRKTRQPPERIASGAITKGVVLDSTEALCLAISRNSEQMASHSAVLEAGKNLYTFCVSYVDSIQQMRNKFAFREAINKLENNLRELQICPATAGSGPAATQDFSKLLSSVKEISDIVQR
Sequence of Protein kinase C eta type (Homo sapiens) (P24723 whole entry): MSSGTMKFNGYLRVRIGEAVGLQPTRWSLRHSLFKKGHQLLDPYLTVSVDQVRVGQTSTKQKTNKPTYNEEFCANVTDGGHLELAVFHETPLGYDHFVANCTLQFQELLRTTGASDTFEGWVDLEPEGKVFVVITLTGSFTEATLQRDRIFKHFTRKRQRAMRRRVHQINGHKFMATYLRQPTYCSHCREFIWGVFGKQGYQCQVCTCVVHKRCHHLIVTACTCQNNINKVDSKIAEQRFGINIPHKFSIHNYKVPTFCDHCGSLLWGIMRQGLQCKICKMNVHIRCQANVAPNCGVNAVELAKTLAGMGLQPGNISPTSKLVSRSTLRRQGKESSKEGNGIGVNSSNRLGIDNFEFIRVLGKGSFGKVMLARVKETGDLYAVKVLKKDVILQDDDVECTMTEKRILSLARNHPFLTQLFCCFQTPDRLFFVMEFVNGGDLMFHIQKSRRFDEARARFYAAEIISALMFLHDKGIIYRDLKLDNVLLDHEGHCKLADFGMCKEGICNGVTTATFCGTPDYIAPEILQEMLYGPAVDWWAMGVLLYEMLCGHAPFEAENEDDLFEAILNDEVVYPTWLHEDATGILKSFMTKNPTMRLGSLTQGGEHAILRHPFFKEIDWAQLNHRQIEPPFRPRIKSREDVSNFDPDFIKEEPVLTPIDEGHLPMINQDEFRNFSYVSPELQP
Sequence of Tyrosine-protein kinase ABL1 (Homo sapiens), P00519 [F317L] (P00519 whole entry F317L): as the sequence (P00519 whole entry E255K) above, with K255E, F317L counted along it

CC(=O)N1CCC(c2ccc(C(=O)NC(=N)N)cc2C(F)(F)F)CC1 [BI 9627]
inactive: residual activity [1] 100% | residual activity [2] 100% | residual activity [3] 100% | residual activity [4] 100% | residual activity [5] 86% | residual activity [6] 82% | residual activity [7] 100% | residual activity [8] 100% | residual activity [9] 100% | residual activity [10] 97% | residual activity [11] 100% | residual activity [12] 96% | residual activity [13] 98% | residual activity [14] 100% | residual activity [15] 89% | residual activity [16] 92% | residual activity [17] 81% | residual activity [18] 70% | residual activity [19] 100% | residual activity [20] 100% | residual activity [21] 100% | residual activity [22] 100% | residual activity [23] 100% | residual activity [24] 100% | residual activity [25] 77% | residual activity [26] 84% | residual activity [27] 100% | residual activity [28] 100% | residual activity [29] 100% | residual activity [30] 100% | residual activity [31] 100% | residual activity [32] 100% | residual activity [33] 80% | residual activity [34] 100% | residual activity [35] 100% | inhibition [36] 16.3% | inhibition [37] 7.6% | inhibition [38] -0.34% | inhibition [39] 22.3%

CC(=O)N1CCC(c2ccc(C(=O)NC3=NCCN3)cc2C(F)(F)F)CC1 [BI 0054]
inactive: residual activity [1] 82% | residual activity [2] 87% | residual activity [3] 100% | residual activity [4] 100% | residual activity [5] 89% | residual activity [6] 79% | residual activity [7] 100% | residual activity [8] 100% | residual activity [9] 94% | residual activity [10] 93% | residual activity [11] 89% | residual activity [12] 93% | residual activity [13] 87% | residual activity [14] 98% | residual activity [15] 98% | residual activity [16] 76% | residual activity [17] 91% | residual activity [18] 71% | residual activity [19] 100% | residual activity [20] 93% | residual activity [21] 100% | residual activity [22] 100% | residual activity [23] 100% | residual activity [24] 100% | residual activity [25] 55% | residual activity [26] 100% | residual activity [27] 100% | residual activity [28] 100% | residual activity [29] 100% | residual activity [30] 93% | residual activity [31] 73% | residual activity [32] 100% | residual activity [33] 89% | residual activity [34] 100% | residual activity [35] 89% | inhibition [36] 3.32% | inhibition [37] -0.162% | inhibition [38] 4.92% | inhibition [39] 19.9%
